According to ChEMBL document CHEMBL1150094, “Cacospongionolide B, a new sesterterpene from the sponge Fasciospongia cavernosa” (J Nat Prod, 1995):
Converted amounts (≈) assume the structure as drawn.

Experiments:
Bacillus subtilis = experiment: Antimicrobial activity against Bacillus subtilis DSM 347; format: functional
Micrococcus luteus = experiment: Antimicrobial activity against Micrococcus luteus DSM 348; format: functional
Artemia salina = experiment: Toxicity against Artemia salina; format: organism-based; conditions: in vivo

## C=C1CCC[C@H]2[C@](C)(CCC3=CCC(C4=CC(=O)OC4O)OC3)[C@H](C)CC[C@]12C (stereo partly drawn) [CACOSPONGIONOLIDE B]
Bacillus subtilis
  MIC: 0.78 µg/mL (≈ 1.95 µM)
Micrococcus luteus
  MIC: 0.78 µg/mL (≈ 1.95 µM)
Artemia salina
  LC50: 0.25 ppm
